According to article PMC5295379, “Acquired savolitinib resistance in non-small cell lung cancer arises via multiple mechanisms that converge on MET-independent mTOR and MYC activation” (Oncotarget, 2016):

Biological target: MET (Homo sapiens, UniProt P08581)
Experiment: pMET (Y1234/[…]) immunoblot densitometry in MET-amplified H1993 and EBC-1 cells, […] h dose response
Type: cell-based

Sequence of MET (P08581 25-307): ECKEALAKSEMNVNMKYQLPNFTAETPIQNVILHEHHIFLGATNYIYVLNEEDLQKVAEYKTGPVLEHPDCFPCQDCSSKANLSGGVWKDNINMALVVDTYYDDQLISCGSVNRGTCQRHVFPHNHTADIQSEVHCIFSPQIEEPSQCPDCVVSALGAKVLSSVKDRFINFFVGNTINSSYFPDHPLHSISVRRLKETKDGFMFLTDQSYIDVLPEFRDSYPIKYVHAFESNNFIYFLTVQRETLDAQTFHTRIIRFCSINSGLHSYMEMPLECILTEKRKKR
Sequence of MET (P08581 308-1390): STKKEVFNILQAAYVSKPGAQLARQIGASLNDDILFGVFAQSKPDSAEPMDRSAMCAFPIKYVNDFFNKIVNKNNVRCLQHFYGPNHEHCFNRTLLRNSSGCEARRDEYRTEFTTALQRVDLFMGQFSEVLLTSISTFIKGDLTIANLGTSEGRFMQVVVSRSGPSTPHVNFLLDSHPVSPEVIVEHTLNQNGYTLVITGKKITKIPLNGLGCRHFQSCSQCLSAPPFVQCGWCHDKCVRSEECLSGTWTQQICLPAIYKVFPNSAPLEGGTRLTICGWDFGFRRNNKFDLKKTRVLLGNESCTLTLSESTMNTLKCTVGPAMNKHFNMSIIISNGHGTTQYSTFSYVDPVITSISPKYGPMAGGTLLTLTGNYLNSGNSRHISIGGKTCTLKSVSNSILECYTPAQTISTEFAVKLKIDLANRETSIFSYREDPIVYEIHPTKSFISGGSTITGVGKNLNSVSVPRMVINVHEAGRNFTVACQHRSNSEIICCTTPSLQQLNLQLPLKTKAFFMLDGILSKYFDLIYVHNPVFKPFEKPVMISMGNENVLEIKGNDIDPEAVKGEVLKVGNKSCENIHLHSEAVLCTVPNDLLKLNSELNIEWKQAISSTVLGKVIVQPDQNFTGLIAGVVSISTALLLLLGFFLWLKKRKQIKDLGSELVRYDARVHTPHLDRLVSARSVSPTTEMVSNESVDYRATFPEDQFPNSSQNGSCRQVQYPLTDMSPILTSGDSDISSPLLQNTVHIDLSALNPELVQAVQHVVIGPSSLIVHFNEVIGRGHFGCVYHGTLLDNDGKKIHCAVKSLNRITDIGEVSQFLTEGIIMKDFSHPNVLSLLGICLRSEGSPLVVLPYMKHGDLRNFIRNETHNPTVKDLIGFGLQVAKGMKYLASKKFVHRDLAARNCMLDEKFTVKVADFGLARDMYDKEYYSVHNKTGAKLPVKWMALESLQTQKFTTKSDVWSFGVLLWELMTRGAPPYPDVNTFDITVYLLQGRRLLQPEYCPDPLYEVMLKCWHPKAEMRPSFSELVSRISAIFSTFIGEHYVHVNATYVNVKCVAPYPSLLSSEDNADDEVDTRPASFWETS

C[C@@H](c1ccc2nccn2c1)n1nnc2ncc(-c3cnn(C)c3)nc21 [savolitinib, (S)-1-(1-(Imidazo[1,2-a]pyridin-6-yl)ethyl)-6-(1-methyl-1H-pyrazol-4-yl)-1H-[1,2, 3]triazolo[4,5-b]pyrazine]
IC50: 4.12 nM
